Data on 70 compounds can be found in patent US20160185774A1, “Anti-Infective Compounds” (priority 2013, published 2016).

Converted amounts (≈) assume the structure as drawn. Bounds are passed on as bounds.

For the test, the system named is M. tuberculosis. Put plainly: microbe, parasite or virus in culture. It is filed as cell-based. Conditions: Mycobacterium tuberculosis, 120 h; read-out: QUM (MIC80).
For the compound `CCc1nc2ccc(Br)cn2c1C(=O)NCc1ccc(N2CCC(c3ccccc3)CC2)cc1` [Compound 1], the MIC80 was less than 1 µM.

With `CCc1nc2ccc(Br)cn2c1C(=O)NCc1ccc(N2CCC(c3ccc(OC)cc3)CC2)cc1` [Compound 2], the MIC80 is less than 1 µM.

Regarding `CCc1nc2cc(C(F)(F)F)ccn2c1C(=O)NCc1ccc(N2CCC(c3ccccc3)CC2)cc1` [Compound 3], the MIC80 is less than 1 µM.

Take `CCc1nc2cc(C(F)(F)F)ccn2c1C(=O)NCc1ccc(N2CCC(c3ccc(F)cc3)CC2)cc1` [Compound 4]: the MIC80 was less than 1 µM.

For `CCc1nc2cc(F)ccn2c1C(=O)NCc1ccc(N2CCC(c3ccc(C)cc3)CC2)cc1` [Compound 5], the MIC80 was less than 1 µM.

In the case of `CCc1nc2c(F)cccn2c1C(=O)NCc1ccc(N2CCC(c3ccc(C)cc3)CC2)cc1` [Compound 6], the MIC80 is less than 1 µM.

With `CCc1nc2ccc(Cl)cn2c1C(=O)NCc1ccc(N2CCC(c3ccc(C)cc3)CC2)cc1` [Compound 7], the MIC80 was less than 1 µM.

Consider `CCc1nc2c(C)cccn2c1C(=O)NCc1ccc(N2CCC(c3ccc(OC)cc3)CC2)cc1` [Compound 8], for which the MIC80 is less than 1 µM.

As to `CCc1nc2ccc(C)cn2c1C(=O)NCc1ccc(N2CCN(c3ccccc3)CC2)cc1` [Compound 9], the MIC80 is less than 1 µM.

For `CCc1nc2cc(OC)ccn2c1C(=O)NCc1ccc(N2CCN(c3ccc(OC(F)(F)F)cc3)CC2)cc1` [Compound 10], the MIC80 is less than 1 µM.

On to `CCc1nc2ccc(F)cn2c1C(=O)NCc1ccc(N2CCC(c3ccc(C(F)(F)F)cc3)CC2)cc1` [Compound 11], for which the MIC80 was less than 1 µM.

For `CCc1nc2c(F)cccn2c1C(=O)NCc1ccc(N2CCC(c3ccc(C(F)(F)F)cc3)CC2)cc1` [Compound 12], the MIC80 is less than 1 µM.

Turning to `CCc1nc2cc(Cl)ccn2c1C(=O)NCc1ccc(N2CCC(c3ccc(C(F)(F)F)cc3)CC2)cc1` [Compound 13], the MIC80 is less than 1 µM.

With `CCc1nc2cc(F)ccn2c1C(=O)NCc1ccc(N2CCC(c3ccc(OC)cc3)CC2)cc1` [Compound 14], the MIC80 was less than 1 µM.

Regarding `CCc1nc2c(F)cccn2c1C(=O)NCc1ccc(N2CCC(c3ccc(OC)cc3)CC2)cc1` [Compound 15], the MIC80 is less than 1 µM.

Take `CCc1nc2ccc(Cl)cn2c1C(=O)NCc1ccc(N2CCC(c3ccc(OC)cc3)CC2)cc1` [Compound 16]: the MIC80 was less than 1 µM.

For `CCc1nc2cc(F)ccn2c1C(=O)NCc1ccc(N2CCC(c3ccc(Cl)cc3)CC2)cc1` [Compound 17], the MIC80 is less than 1 µM.

Take `CCc1nc2cc(OC)ccn2c1C(=O)NCc1ccc(N2CCC(c3ccccc3)CC2)cc1` [Compound 18]: the MIC80 was less than 1 µM.

On to `CCc1nc2ccc(C)cn2c1C(=O)NCc1ccc(N2CCC(c3ccc(F)cc3)CC2)cc1` [Compound 19], for which the MIC80 is less than 1 µM.

For `CCc1nc2cc(OC)ccn2c1C(=O)NCc1ccc(N2CCC(c3ccc(F)cc3)CC2)cc1` [Compound 20], the MIC80 was less than 1 µM.

With `CCc1nc2cc(OC)ccn2c1C(=O)NCc1ccc(N2CCC(c3ccc(Cl)cc3)CC2)cc1` [Compound 21], the MIC80 was less than 1 µM.

For `CCc1nc2c(C(F)(F)F)cccn2c1C(=O)NCc1ccc(N2CCC(c3ccc(Cl)cc3)CC2)cc1` [Compound 22], the MIC80 was 1 to 20 µM (≈ 0.541 to 10.8 µg/mL).

On to `CCc1nc2cc(OC)ccn2c1C(=O)NCc1ccc(N2CCC(c3ccc(C)cc3)CC2)cc1` [Compound 23], for which the MIC80 is less than 1 µM.

As to `CCc1nc2cc(C(F)(F)F)ccn2c1C(=O)NCc1ccc(N2CCC(c3ccc(C)cc3)CC2)cc1` [Compound 24], the MIC80 is less than 1 µM.

On to `CCc1nc2c(C(F)(F)F)cccn2c1C(=O)NCc1ccc(N2CCC(c3ccc(C)cc3)CC2)cc1` [Compound 25], for which the MIC80 was in the range of 1 to 20 µM (≈ 0.521 to 10.4 µg/mL).

As to `CCc1nc2cc(C(F)(F)F)ccn2c1C(=O)NCc1ccc(N2CCC(c3ccc(C(F)(F)F)cc3)CC2)cc1` [Compound 26], the MIC80 is less than 1 µM.

As to `CCc1nc2c(C(F)(F)F)cccn2c1C(=O)NCc1ccc(N2CCC(c3ccc(OC)cc3)CC2)cc1` [Compound 27], the MIC80 fell in the range of 1 to 20 µM (≈ 0.537 to 10.7 µg/mL).

`CCc1nc2ccccn2c1C(=O)NCc1ccc(N2CCN(c3ccc(C)cc3)CC2)cc1` [Compound 28]: the MIC80 was less than 1 µM.

As for `CCc1nc2ccccn2c1C(=O)NCc1ccc(N2CCN(c3ccc(C(F)(F)F)cc3)CC2)cc1` [Compound 29], the MIC80 was less than 1 µM.

With `CCc1nc2ccccn2c1C(=O)NCc1ccc(N2CCN(c3ccc(OC)cc3)CC2)cc1` [Compound 30], the MIC80 is less than 1 µM.

For the compound `CCc1nc2c(F)cccn2c1C(=O)NCc1ccc(N2CCN(c3ccc(C)cc3)CC2)cc1` [Compound 31], the MIC80 is less than 1 µM.

As to `CCc1nc2c(F)cccn2c1C(=O)NCc1ccc(N2CCN(c3ccc(OC)cc3)CC2)cc1` [Compound 32], the MIC80 is less than 1 µM.

Take `CCc1nc2ccc(Cl)cn2c1C(=O)NCc1ccc(N2CCN(c3ccc(OC)cc3)CC2)cc1` [Compound 33]: the MIC80 was less than 1 µM.

Take `CCc1nc2c(Br)cccn2c1C(=O)NCc1ccc(N2CCC(c3ccc(C)cc3)CC2)cc1` [Compound 34]: the MIC80 lay within 1 to 20 µM (≈ 0.531 to 10.6 µg/mL).

With `CCc1nc2cc(Cl)ccn2c1C(=O)NCc1ccc(N2CCN(c3ccc(C)cc3)CC2)cc1` [Compound 35], the MIC80 is less than 1 µM.

Regarding `CCc1nc2ccc(Cl)cn2c1C(=O)NCc1ccc(N2CCN(c3ccc(C)cc3)CC2)cc1` [Compound 36], the MIC80 is less than 1 µM.

Regarding `CCc1nc2ccccn2c1C(=O)NCc1ccc(N2CCN(c3ccc(Cl)cc3)CC2)cc1` [Compound 37], the MIC80 is less than 1 µM.

`CCc1nc2c(C)cccn2c1C(=O)NCc1ccc(N2CCN(c3ccc(OC)cc3)CC2)cc1` [Compound 38]: the MIC80 was less than 1 µM.

`CCc1nc2c(C)cccn2c1C(=O)NCc1ccc(N2CCN(c3ccc(C)cc3)CC2)cc1` [Compound 39]: the MIC80 was less than 1 µM.

For `CCc1nc2c(C)cccn2c1C(=O)NCc1ccc(N2CCN(c3ccc(C(F)(F)F)cc3)CC2)cc1` [Compound 40], the MIC80 is less than 1 µM.

`CCc1nc2c(C)cccn2c1C(=O)NCc1ccc(N2CCN(c3ccccc3)CC2)cc1` [Compound 41]: the MIC80 was less than 1 µM.

Turning to `CCc1nc2ccc(F)cn2c1C(=O)NCc1ccc(N2CCN(c3ccc(OC(F)(F)F)cc3)CC2)cc1` [Compound 42], the MIC80 was less than 1 µM.

Regarding `CCc1nc2c(C)cccn2c1C(=O)NCc1ccc(N2CCN(c3ccc(Cl)cc3)CC2)cc1` [Compound 43], the MIC80 was less than 1 µM.

As to `CCc1nc2c(C)cccn2c1C(=O)NCc1ccc(N2CCN(c3ccc(OC(F)(F)F)cc3)CC2)cc1` [Compound 44], the MIC80 is less than 1 µM.

On to `CCc1nc2ccc(Cl)cn2c1C(=O)NCc1ccc(N2CCN(c3ccc(Cl)cc3)CC2)cc1` [Compound 45], for which the MIC80 is less than 1 µM.

For `CCc1nc2cc(Cl)ccn2c1C(=O)NCc1ccc(N2CCN(c3ccc(OC)cc3)CC2)cc1` [Compound 46], the MIC80 is less than 1 µM.

Consider `CCc1nc2c(Cl)cccn2c1C(=O)NCc1ccc(N2CCN(c3ccc(Cl)cc3)CC2)cc1` [Compound 47], for which the MIC80 was less than 1 µM.

As to `CCc1nc2ccc(Cl)cn2c1C(=O)NCc1ccc(N2CCN(c3ccc(C(F)(F)F)cc3)CC2)cc1` [Compound 48], the MIC80 is less than 1 µM.

Regarding `CCc1nc2c(Cl)cccn2c1C(=O)NCc1ccc(N2CCN(c3ccc(C(F)(F)F)cc3)CC2)cc1` [Compound 49], the MIC80 is less than 1 µM.

Take `CCc1nc2c(Cl)cccn2c1C(=O)NCc1ccc(N2CCN(c3ccc(OC)cc3)CC2)cc1` [Compound 50]: the MIC80 is less than 1 µM.

On to `CCc1nc2cc(C)ccn2c1C(=O)NCc1ccc(N2CCC(c3ccc(C(F)(F)F)cc3)CC2)cc1` [Compound 51], for which the MIC80 was less than 1 µM.

Consider `CCc1nc2cc(C)ccn2c1C(=O)NCc1ccc(N2CCC(c3ccc(Cl)cc3)CC2)cc1` [Compound 52], for which the MIC80 was less than 1 µM.

As to `CCc1nc2c(Cl)cccn2c1C(=O)NCc1ccc(N2CCC(c3ccc(Cl)cc3)CC2)cc1` [Compound 53], the MIC80 was less than 1 µM.

For the compound `CCc1nc2cc(C)ccn2c1C(=O)NCc1ccc(N2CCN(c3ccc(OC)cc3)CC2)cc1` [Compound 54], the MIC80 was less than 1 µM.

Regarding `CCc1nc2ccc(C)cn2c1C(=O)NCc1ccc(N2CCN(c3ccc(OC(F)(F)F)cc3)CC2)cc1` [Compound 55], the MIC80 was less than 1 µM.

For the compound `CCc1nc2ccc(C)cn2c1C(=O)NCc1ccc(N2CCN(c3ccc(OC)cc3)CC2)cc1` [Compound 56], the MIC80 was less than 1 µM.

`CCc1nc2cc(OC)ccn2c1C(=O)NCc1ccc(N2CCN(c3ccc(C(F)(F)F)cc3)CC2)cc1` [Compound 57]: the MIC80 was less than 1 µM.

As to `CCc1nc2c(OC)cccn2c1C(=O)NCc1ccc(N2CCN(c3ccc(OC)cc3)CC2)cc1` [Compound 58], the MIC80 lay in the range of 1 to 20 µM (≈ 0.5 to 9.99 µg/mL).

`CCc1nc2cc(C)ccn2c1C(=O)NCc1ccc(N2CCN(c3ccc(Cl)cc3)CC2)cc1` [Compound 59]: the MIC80 is less than 1 µM.

`CCc1nc2ccc(C)cn2c1C(=O)NCc1ccc(N2CCN(c3ccc(C(F)(F)F)cc3)CC2)cc1` [Compound 60]: the MIC80 is less than 1 µM.

As to `CCc1nc2cc(C)ccn2c1C(=O)NCc1ccc(N2CCN(c3ccc(C(F)(F)F)cc3)CC2)cc1` [Compound 61], the MIC80 is less than 1 µM.

For the compound `CCc1nc2ccccn2c1C(=O)NCc1ccc(N2CCN(c3ccccc3)CC2)cc1` [Compound 62], the MIC80 was less than 1 µM.

As to `CCc1nc2c(F)cccn2c1C(=O)NCc1ccc(N2CCN(c3ccc(Cl)cc3)CC2)cc1` [Compound 63], the MIC80 was less than 1 µM.

For `CCc1nc2c(Cl)cccn2c1C(=O)NCc1ccc(N2CCN(c3ccccc3)CC2)cc1` [Compound 64], the MIC80 is less than 1 µM.

On to `CCc1nc2ccc(C)cn2c1C(=O)NCc1ccc(N2CCN(c3ccc(C)cc3)CC2)cc1` [Compound 65], for which the MIC80 was less than 1 µM.

For `CCc1nc2ccc(C)cn2c1C(=O)NCc1ccc(N2CCN(c3ccc(Cl)cc3)CC2)cc1` [Compound 66], the MIC80 is less than 1 µM.

Turning to `CCc1nc2cc(C)ccn2c1C(=O)NCc1ccc(N2CCN(c3ccccc3)CC2)cc1` [Compound 67], the MIC80 is less than 1 µM.

For the compound `CCc1nc2ccc(Cl)cn2c1C(=O)NCc1ccc(N2CCN(c3ccccc3)CC2)cc1` [Compound 68], the MIC80 is less than 1 µM.

Turning to `CCc1nc2cc(F)ccn2c1C(=O)NCc1ccc(N2CCN(c3ccccc3)CC2)cc1` [Compound 69], the MIC80 was less than 1 µM.

Regarding `CCc1nc2c(F)cccn2c1C(=O)NCc1ccc(N2CCN(c3ccccc3)CC2)cc1` [Compound 70], the MIC80 is less than 1 µM.
